Paper PMC4604091, “Two homolog wheat Glycogen Synthase Kinase 3/SHAGGY - like kinases are involved in brassinosteroid signaling” (BMC Plant Biology, 2015)

Legend:
TaGSK1 = target: T1, TaGSK1 (Triticum aestivum, UniProt Q8LK43); experiment: in vitro kinase assay, […] phosphorylation of myelin basic protein, autoradiography; assay type: biochemical; conditions: read-out: % residual activity at 15 μM
T1 construct: full length, N-terminal GST fusion, expressed in E. coli, glutathione Sepharose purified, tag kept
T1 sequence (Q8LK43 1-381): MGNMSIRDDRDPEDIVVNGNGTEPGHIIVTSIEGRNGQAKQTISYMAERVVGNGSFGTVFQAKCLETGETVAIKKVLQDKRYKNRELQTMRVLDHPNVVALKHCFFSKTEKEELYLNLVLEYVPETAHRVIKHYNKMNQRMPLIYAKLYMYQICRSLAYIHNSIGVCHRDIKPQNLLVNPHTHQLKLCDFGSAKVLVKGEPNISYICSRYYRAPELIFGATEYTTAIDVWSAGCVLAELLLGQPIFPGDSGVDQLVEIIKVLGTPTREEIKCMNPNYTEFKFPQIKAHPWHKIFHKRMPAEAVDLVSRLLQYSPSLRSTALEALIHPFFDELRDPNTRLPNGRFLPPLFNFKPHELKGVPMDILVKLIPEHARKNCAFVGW

BIN2 = target: T2, BIN2 (Arabidopsis thaliana, UniProt Q39011); experiment: as above; assay type: biochemical; conditions: read-out: % residual activity at 15 μM
T2 construct: gene ASK7; full length, N-terminal GST fusion, expressed in E. coli, glutathione Sepharose purified, tag kept
T2 sequence (Q39011 1-380): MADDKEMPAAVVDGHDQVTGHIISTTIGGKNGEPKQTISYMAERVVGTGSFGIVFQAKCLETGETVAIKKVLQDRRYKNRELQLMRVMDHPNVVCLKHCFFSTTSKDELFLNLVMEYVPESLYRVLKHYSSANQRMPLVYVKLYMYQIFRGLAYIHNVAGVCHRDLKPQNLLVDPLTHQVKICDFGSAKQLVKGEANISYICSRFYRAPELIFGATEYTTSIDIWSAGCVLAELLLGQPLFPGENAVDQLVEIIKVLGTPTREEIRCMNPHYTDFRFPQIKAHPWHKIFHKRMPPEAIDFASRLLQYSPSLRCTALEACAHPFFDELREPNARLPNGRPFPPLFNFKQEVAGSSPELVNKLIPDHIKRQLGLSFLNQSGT

## O=C(O)CCC(=O)Nc1ccc(Br)cn1 [Bikinin, 4-[(5-bromo-2-pyridinyl)amino]-4-oxobutanoic acid]
TaGSK1
  remaining activity at 15 µM: ~30%
BIN2
  remaining activity at 15 µM: < 5%
